Assay results as given in ChEMBL document CHEMBL3885881, “DrugMatrix”.
Where “and” joins values, the source holds several entries; their conditions need not be identical. Equal values may be shown once.

Organism: Rattus norvegicus
Assay: DrugMatrix - Regimen: Daily Repeat
Type: toxicity, organism-based, Sprague-Dawley
Parameters: regimen Daily Repeat, gender Male, age 6-8 weeks
Details: in vivo, po, route oral GAVAGE, vehicle .5 % CMC; for ABSOLUTE BASOPHIL / ABSOLUTE LYMPHOCYTE / ABSOLUTE MONOCYTE / ABSOLUTE SEGMENTED NEUTROPHIL / BASOPHIL / EOSINOPHIL / ERYTHROCYTE COUNT / HEMATOCRIT / HEMOGLOBIN / LEUKOCYTE COUNT / LYMPHOCYTE / MEAN CORPUSCULAR HEMOGLOBIN / MEAN CORPUSCULAR HEMOGLOBIN CONCENTRATION / MEAN CORPUSCULAR VOLUME / MONOCYTE / NEUTROPHIL / PLATELET COUNT / ABSOLUTE EOSINOPHIL / NUCLEATED RED BLOOD CELLS: tissue Blood; for ALANINE AMINOTRANSFERASE / ALBUMIN / ALKALINE PHOSPHATASE / ASPARTATE AMINOTRANSFERASE / BLOOD UREA NITROGEN / CARBON DIOXIDE / CHLORIDE / CHOLESTEROL / CREATINE PHOSPHOKINASE / CREATININE / GLUCOSE / LIPASE / PHOSPHORUS / POTASSIUM / SODIUM / TOTAL BILIRUBIN / TOTAL PROTEIN / URIC ACID / LACTATE DEHYDROGENASE: tissue Plasma
[1] = 0 mg/kg, 72 h, dose level Control, time 3 day
[2] = 0 mg/kg, 120 h, dose level Control, time 5 day
[3] = 11 mg/kg, 72 h, dose level Low, time 3 day
[4] = 11 mg/kg, 120 h, dose level Low, time 5 day

## COc1ccc2c3c1O[C@H]1C[C@@H](O)C=C[C@@]31CCN(C)C2 [GALANTAMINE]
[1]
  ABSOLUTE BASOPHIL: 0 CELLS/uL
  ABSOLUTE LYMPHOCYTE: 15937.67 CELLS/uL and 12269.67 CELLS/uL
  ABSOLUTE MONOCYTE: 138.33 CELLS/uL and 160.33 CELLS/uL
  ABSOLUTE SEGMENTED NEUTROPHIL: 1443 CELLS/uL and 970 CELLS/uL
  BASOPHIL: 0%
  EOSINOPHIL: 0.33% and 0%
  ERYTHROCYTE COUNT: 5.45 x10E6/uL and 5.76 x10E6/uL
  HEMATOCRIT: 34.43% and 36.57%
  HEMOGLOBIN: 13.38 G/DL and 14.22 G/DL
  LEUKOCYTE COUNT: 17.57 x10E3/uL and 13.4 x10E3/uL
  LYMPHOCYTE: 90.33% and 91.67%
  MEAN CORPUSCULAR HEMOGLOBIN: 24.6 pg and 24.67 pg
  MEAN CORPUSCULAR HEMOGLOBIN CONCENTRATION: 38.88 G/DL and 38.85 G/DL
  MEAN CORPUSCULAR VOLUME: 63.27 fL and 63.52 fL
  MONOCYTE: 0.83% and 1.17%
  NEUTROPHIL: 8.5% and 7.17%
  PLATELET COUNT: 1298 x10E3/uL and 1250.83 x10E3/uL
  ALANINE AMINOTRANSFERASE: 47.67 u/L and 49.17 u/L
  ALBUMIN: 4.18 G/DL and 4.33 G/DL
  ALKALINE PHOSPHATASE: 398.5 u/L and 378.5 u/L
  ASPARTATE AMINOTRANSFERASE: 93.17 u/L and 82.17 u/L
  BLOOD UREA NITROGEN: 16 mg/dL and 15 mg/dL
  CARBON DIOXIDE: 29.17 mmol/L and 34.33 mmol/L
  CHLORIDE: 98.17 MEQ/L and 99.17 MEQ/L
  CHOLESTEROL: 68.83 mg/dL and 71.17 mg/dL
  CREATINE PHOSPHOKINASE: 467.33 u/L and 258.67 u/L
  CREATININE: 0.14 mg/dL and 0.18 mg/dL
  GLUCOSE: 151.67 mg/dL and 142.67 mg/dL
  LIPASE: 9.33 u/L and 9 u/L
  PHOSPHORUS: 11.97 mg/dL and 11.67 mg/dL
  POTASSIUM: 6.43 MEQ/L and 7.13 MEQ/L
  SODIUM: 140.68 MEQ/L and 142.22 MEQ/L
  TOTAL BILIRUBIN: 0.18 mg/dL
  TOTAL PROTEIN: 5.82 G/DL and 5.77 G/DL
  URIC ACID: 1.48 mg/dL and 1.55 mg/dL
[2]
  ABSOLUTE BASOPHIL: 0 CELLS/uL
  ABSOLUTE EOSINOPHIL: 31 CELLS/uL and 23.33 CELLS/uL
  ABSOLUTE LYMPHOCYTE: 14327.83 CELLS/uL and 14943.67 CELLS/uL
  ABSOLUTE SEGMENTED NEUTROPHIL: 1321.67 CELLS/uL and 1084.33 CELLS/uL
  BASOPHIL: 0%
  EOSINOPHIL: 0.17%
  ERYTHROCYTE COUNT: 5.79 x10E6/uL and 5.71 x10E6/uL
  HEMATOCRIT: 36.1% and 35.28%
  HEMOGLOBIN: 14.15 G/DL and 14.27 G/DL
  LEUKOCYTE COUNT: 15.78 x10E3/uL and 16.08 x10E3/uL
  LYMPHOCYTE: 90.5% and 93%
  MEAN CORPUSCULAR HEMOGLOBIN: 24.48 pg and 25.02 pg
  MEAN CORPUSCULAR HEMOGLOBIN CONCENTRATION: 39.22 G/DL and 40.43 G/DL
  MEAN CORPUSCULAR VOLUME: 62.4 fL and 61.82 fL
  MONOCYTE: 0.67% and 0.17%
  NEUTROPHIL: 8.67% and 6.67%
  NUCLEATED RED BLOOD CELLS: 0.17 /100WBC and 0.33 /100WBC
  PLATELET COUNT: 1211.67 x10E3/uL and 1274 x10E3/uL
  ALANINE AMINOTRANSFERASE: 49 u/L and 54.17 u/L
  ALBUMIN: 4.27 G/DL and 4.22 G/DL
  ALKALINE PHOSPHATASE: 356.67 u/L and 373.17 u/L
  ASPARTATE AMINOTRANSFERASE: 90.17 u/L and 81.83 u/L
  BLOOD UREA NITROGEN: 20.5 mg/dL and 16.67 mg/dL
  CARBON DIOXIDE: 29.17 mmol/L and 30.33 mmol/L
  CHLORIDE: 98 MEQ/L and 99 MEQ/L
  CHOLESTEROL: 69.83 mg/dL and 71 mg/dL
  CREATINE PHOSPHOKINASE: 312 u/L and 273.5 u/L
  CREATININE: 0.21 mg/dL and 0.22 mg/dL
  GLUCOSE: 149.83 mg/dL and 141.83 mg/dL
  LACTATE DEHYDROGENASE: 322 u/L and 153.67 u/L
  LIPASE: 10 u/L and 10.33 u/L
  PHOSPHORUS: 12 mg/dL and 11.38 mg/dL
  POTASSIUM: 6.75 MEQ/L and 7.08 MEQ/L
  SODIUM: 142.8 MEQ/L and 142.75 MEQ/L
  TOTAL BILIRUBIN: 0.17 mg/dL and 0.18 mg/dL
  TOTAL PROTEIN: 6.1 G/DL
  URIC ACID: 1.68 mg/dL and 1.67 mg/dL
[3]
  ABSOLUTE BASOPHIL: 0 CELLS/uL
  ABSOLUTE EOSINOPHIL: 71.33 CELLS/uL
  ABSOLUTE LYMPHOCYTE: 10973.33 CELLS/uL
  ABSOLUTE MONOCYTE: 201 CELLS/uL
  ABSOLUTE SEGMENTED NEUTROPHIL: 1221 CELLS/uL
  BASOPHIL: 0%
  EOSINOPHIL: 0.67%
  ERYTHROCYTE COUNT: 5.6 x10E6/uL
  HEMATOCRIT: 35.33%
  HEMOGLOBIN: 13.47 G/DL
  LEUKOCYTE COUNT: 12.47 x10E3/uL
  LYMPHOCYTE: 87.67%
  MEAN CORPUSCULAR HEMOGLOBIN: 24.1 pg
  MEAN CORPUSCULAR HEMOGLOBIN CONCENTRATION: 38.13 G/DL
  MEAN CORPUSCULAR VOLUME: 63.17 fL
  MONOCYTE: 1.67%
  NEUTROPHIL: 10%
  NUCLEATED RED BLOOD CELLS: 0 /100WBC
  PLATELET COUNT: 1277.67 x10E3/uL
  ALANINE AMINOTRANSFERASE: 46.67 u/L
  ALBUMIN: 4.13 G/DL
  ALKALINE PHOSPHATASE: 368.33 u/L
  ASPARTATE AMINOTRANSFERASE: 76.33 u/L
  BLOOD UREA NITROGEN: 17 mg/dL
  CARBON DIOXIDE: 29.67 mmol/L
  CHLORIDE: 98.33 MEQ/L
  CHOLESTEROL: 76.33 mg/dL
  CREATINE PHOSPHOKINASE: 222.67 u/L
  CREATININE: 0.18 mg/dL
  GLUCOSE: 154.33 mg/dL
  LACTATE DEHYDROGENASE: 192 u/L
  LIPASE: 9.67 u/L
  PHOSPHORUS: 12.47 mg/dL
  POTASSIUM: 6.58 MEQ/L
  SODIUM: 142 MEQ/L
  TOTAL BILIRUBIN: 0.2 mg/dL
  TOTAL PROTEIN: 5.83 G/DL
  URIC ACID: 1.5 mg/dL
[4]
  ABSOLUTE BASOPHIL: 0 CELLS/uL
  ABSOLUTE EOSINOPHIL: 0 CELLS/uL
